Data from patent publication US7056655B2, “Methods for monitoring and guiding therapeutic suppression of parathyroid hormone in renal patients having secondary hyperparathyroidism” (Scantibodies Laboratory, Inc., priority 2001, dated 2006).

Experiments:
Format in all cases: in vivo
[1] = test system: Total PTH; experiment: Clinical trial in ESRD patients: total PTH assay (Scantibodies) on blood samples; conditions: for Total PTH decrease: median values; for Total PTH: median of ninety patients, 5.5 μg intravenously every three days
Protocol: (§1) A clinical trial was held for ninety ESRD patients. Each patient had been receiving vitamin D suppressant therapy in accordance with the manufacturer's guidelines. Each patient was removed from the therapy for a washout period of four weeks, and this was confirmed by a rise in PTH measurements after removal of the therapeutic. PTH maxacalcitol (made by Chugai Pharmaceutical Corporation of Tokyo, Japan) suppressant therapy was started after the washout at a constant administration of 5.5 μg intravenously every three days. Blood samples were obtained from each patient after the washout (week 0), six weeks after therapy restart (week 6), and twelve weeks after therapy restart (week 12). The samples were assayed for PTH agonist levels and PTH antagonist levels using the PTH agonist assay and total PTH assay made by Scantibodies Laboratory, Inc. The samples were assayed for bone specific alkaline phosphatase using a commercially available immunoassay from Hybritech, Inc. of San Diego, Calif.
(§2) The results of the assays for the ninety patients are shown in FIG. 2 and the following table as median values: […]

[2] = test system: PTH agonist; experiment: Clinical trial in ESRD patients: PTH agonist assay (Scantibodies) on blood samples; conditions: for PTH agonist decrease: median values; for PTH agonist: median of ninety patients, 5.5 μg intravenously every three days
Protocol: as §1, §2

[3] = test system: PTH antagonist; experiment: Clinical trial in ESRD patients: PTH antagonist level (total PTH minus PTH agonist); conditions: for PTH antagonist decrease: 6 weeks versus 0 weeks; for PTH antagonist decrease / PTH antagonist increase: median values; for PTH antagonist increase: 12 weeks versus 6 weeks; for PTH antagonist: median of ninety patients, 5.5 μg intravenously every three days
Excerpt: PTH antagonist levels should be measured using an assay that either directly detects PTH antagonist (but not PTH agonist) or indirectly through a total PTH measurement that measures the sum of the PTH agonist and PTH antagonist. An indirect measurement subtracts the PTH agonist value from the total PTH value, deriving the PTH antagonist value. Thus, one should use a total PTH assay that is designed to have essentially 100% cross-reactivity with PTH antagonist and PTH agonist. For example, Scantibodies Laboratory Total Intact PTH Assay or Scantibodies Laboratory Intact PTH Assay are appropriate assays.
as §1, §2

[4] = test system: bone specific alkaline phosphatase; experiment: Clinical trial in ESRD patients: bone specific alkaline phosphatase immunoassay (Hybritech); conditions: for Alkaline Phosphatase decrease: median values; for Alkaline Phosphatase: median of ninety patients, 5.5 μg intravenously every three days
Protocol: as §1, §2

[5] = 6 weeks versus 0 weeks, listed as PTH suppressant
[6] = 12 weeks versus 6 weeks, listed as PTH suppressant

C=C1/C(=C\C=C2/CCC[C@]3(C)[C@@H]([C@H](C)OCCC(C)(C)O)CC[C@@H]23)C[C@@H](O)C[C@@H]1O [maxacalcitol]
Total PTH decrease ([1]; 6 weeks versus 0 weeks): (41% decrease) | Total PTH decrease [1, 5]: 41% | Total PTH decrease ([1]; 12 weeks versus 6 weeks): (1% decrease) | Total PTH decrease [1, 6]: 0.8% | Total PTH ([1]; 6 weeks (0 weeks: 886)): 531 pg/mL | Total PTH ([1]; 12 weeks (0 weeks: 886)): 525 pg/mL | PTH agonist decrease ([2]; 6 weeks versus 0 weeks): (41% decrease) | PTH agonist decrease [2, 5]: 41% | PTH agonist decrease ([2]; 12 weeks versus 6 weeks): (8% decrease) | PTH agonist decrease [2, 6]: 8% | PTH agonist ([2]; 6 weeks (0 weeks: 609)): 361 pg/mL | PTH agonist ([2]; 12 weeks (0 weeks: 609)): 331 pg/mL | PTH antagonist decrease [3]: (42% decrease) | PTH antagonist decrease ([3]; listed as PTH suppressant): 42% | PTH antagonist increase [3]: (21% increase) | PTH antagonist increase ([3]; listed as PTH suppressant): 21% | PTH antagonist ([3]; 6 weeks (0 weeks: 276)): 160 pg/mL | PTH antagonist ([3]; 12 weeks (0 weeks: 276)): 194 pg/mL | Alkaline Phosphatase decrease ([4]; 6 weeks versus 0 weeks): (13% decrease) | Alkaline Phosphatase decrease ([4]; 12 weeks versus 6 weeks): (16% decrease) | Alkaline Phosphatase ([4]; 6 weeks (0 weeks: 396)): 344 U/ml | Alkaline Phosphatase ([4]; 12 weeks (0 weeks: 396)): 290 U/ml
